Where two headings read alike, the source gives them in different places.
Legend:
Assay type in all cases: cell-based
[1] = tested on: phosphorylated ERK (pERK); assay: Detection of phosphorylated ERK (pERK), AlphaLISA in A375 cells; conditions: four hours incubation, inhibition of ERK phosphorylation, read-out: PERK ELISA (IC50)
Protocol: A375 cells were counted and seeded at 10,000 cells/well in 384 well plates (Corning 3764) and allowed to adhere overnight.
Compounds were dissolved and serially diluted in DMSO. The compounds were then added, mixed, and incubated for four hours at 37° C., 5% CO2. Compounds were added using four-fold dilutions at final concentrations ranging from 10 μM to 0.01 nM. DMSO only and 10 uM staurosporine were added as high and low controls.
Following the four-hour incubation with compounds, cell lysates were prepared and AlphaLISA assay measuring phosphorylated ERK was performed. Media was removed using the Apricot Designs pipettor. Lysis buffer was made from 1× AlphaLISA SureFire Assay Kit (AlphaLISA SureFire Ultra pERK 12 (Thr202/Tyr204) ALSU-PERK-A50K) lysis buffer with protease and phosphatase inhibitors. Cells were lysed by adding 10 uL to all the wells and mixed for 40 minutes on a plate shaker. 10 uL cell lysate was transferred to a new Optiplate (PerkinElmer 6007290) and incubated with 5 uL 1× acceptor mix for 2 hours in the dark. 5 uL of 1× donor mix was added to all wells and mixed by shaking followed by overnight incubation in the dark.
pERK AlphaLISA signal was read on the Envision using standard AlphaLISA settings. Percent inhibition of ERK phosphorylation was calculated by % Inhibition=100×(LumHC−LumSample)/(LumHC−LumLC). The low and high controls (LC/HC) are generated from lysate from wells with cells treated with DMSO or […] Staurosporine (BioAustralis, cat #BIA-S1086), […]. IC50 values were calculated by fitting the Curve using XLfit (v5.3.1.3), equation 201: Y=Bottom+(Top−Bottom)/(1+10^((Log IC50−X)*HillSlope)).

SK-MEL-30 (NRAS Q61K) = assay: Cell viability assay (CellTiter Glo); conditions: SK-MEL-30, 750 cells per well, read-out: BRAF Cytotoxicity (IC50, nM) SK-MEL-30
Protocol: (§1) Cell viability was measured in the following MAPK pathway mutant cancer cell lines: A375 (BRAF V600E), HepG2 (NRAS Q61L), SK-MEL-30 (NRAS Q61K), and OCI-AML-2 (MBNL1-CRAF fusion). Cell viability was also measured in K562 cells.
(§2) A375, HepG2, SK-MEL-30 and OCI-AML-2 cells were grown in the appropriate growth medium as described in Table B2 below, and harvested at 50-80% confluence. Cells were counted and seeded at their appropriate density (see Table B1) in a 384-well plate (Corning 3570). A375, HepG2 and SK-MEL-30 were allowed to adhere overnight prior to treatment and the OCI-AML-2 were treated immediately for the indicated drug treatment times (Table 6).
(§3) Table 6 provides the growth media, number of cells seeded per well and drug treatment times for the each cell line. K562 cells were grown as described in Example B1 above.
(§4) Compounds were dissolved in DMSO and serially diluted. Serially-diluted compound or a DMSO only control (high control, “HC”) was added to the plated cells in each well. Compounds were tested at concentrations of about 10 μM to 0.51 nM, using three-fold dilutions. The final proportion of DMSO never exceeded 0.1%.
(§5) Plates were placed in a 37° C., […] incubator for the indicated treatment times (Table B1). Plates were then removed from the incubator and equilibrated for 15 minutes at room temperature. 40 μl of CellTiter Glo reagent (Promega) was added to measure the relative level of metabolically active cells by quantifying intracellular ATP concentrations. Plates were incubated for 30 minutes at room temperature, and luminescence was measured. Percent viability was normalized to a vehicle control only using the following formula: 0 viability=100×(LumSample−LumLC)/(LumHC−LumLC). Graphical curves were fitted using a nonlinear regression model with a sigmoidal dose response.

HepG2 (NRAS Q61L) = assay: Cell viability assay (CellTiter Glo); conditions: HepG2, 750 cells per well, read-out: BRAF Cytotoxicity (IC50, nM) HEPG2
Protocol: as §1, §2, §3, §4, §5

[2] = tested on: OCI-AML-2 (MBNL1-CRAF fusion); assay: Cell viability assay (CellTiter Glo); conditions: OCI-AML-2, 1000 cells per well, read-out: BRAF Cytotoxicity (IC50, nM) OCI-AML-2
Protocol: as §1, §2, §3, §4, §5

A375 (BRAF V600E) = assay: Cell viability assay (CellTiter Glo)
Protocol: as §1, §2, §3, §4, §5

K562 cells = assay: Cell viability assay (CellTiter Glo); conditions: K562 cells grown as in Example B1, read-out: BRAF Cytotoxicity (IC50, nM) K562
Protocol: K562 cells, cultured in Iscove's Modified Dulbecco's Media (IMDM) supplemented with 10% FBS, were harvested at 50-80% confluency and plated at 2,000 cells per well in 384-well tissue culture plates. A subset of wells contained media only (low control, LC). Compounds were serially diluted in DMSO. 40 nL of compound or DMSO only (high control, HC) were added to each well using an Echo 550 liquid handler (Labcyte). The plates were placed in a 37° C. incubator with 5% CO2 for 72 hours. Cell viability was measured using a CellTiter-Glo luminescent cell viability assay (Promega), which allows for relative quantification of metabolically active cells by luminescence-based measurements of intracellular ATP concentrations. Briefly, plates were removed from the incubator and equilibrated for 15 minutes at room temperature prior to the addition of 40 μL of CellTiter-Glo reagent. Plates were then incubated for 30 minutes at room temperature. Luminescence was measured using an EnSpire plate reader (Perkin Elmer). As noted above, luminescence values from wells with DMSO only or media without cells were used as high and low controls (HC and LC), respectively. Normalized percent viability was calculated as follows: percent viability=100×(LumSample−LumLC)/(LumHC−LumLC). IC50 values were calculated using the XLFit software.
as §1, §3, §4, §5

[3] = A375, 250 cells seeded per well, 72 hours, read-out: BRAF Cytotoxicity (IC50, nM) A375 (250 cells)
[4] = A375, 1000 cells seeded per well, 72 hours, read-out: BRAF Cytotoxicity (IC50, nM) A375 (1000 cells)
[5] = Homo sapiens, A-375, 72 h, A375, 250 cells seeded per well, read-out: BRAF Cytotoxicity (IC50, nM) A375 (250 cells)
[6] = Homo sapiens, A-375, 72 h, A375, 1000 cells seeded per well, read-out: BRAF Cytotoxicity (IC50, nM) A375 (1000 cells)

SMILES | IC50 ([1]; Homo sapiens, A-375, 4 h) | IC50 (SK-MEL-30 (NRAS Q61K); 120 hours) | IC50 (HepG2 (NRAS Q61L); 120 hours) | IC50 ([2]; 72 hours) | IC50 (A375 (BRAF V600E); [3]) | IC50 (A375 (BRAF V600E); [4]) | IC50 (K562 cells; Homo sapiens) | IC50 [1] | IC50 (A375 (BRAF V600E); [5]) | IC50 (SK-MEL-30 (NRAS Q61K); Homo sapiens, SK-MEL-30, 120 h) | IC50 (HepG2 (NRAS Q61L); Homo sapiens, HepG2, 120 h) | IC50 ([2]; Homo sapiens, OCI-AML2, 72 h) | IC50 (K562 cells) | IC50 (A375 (BRAF V600E); [6])
CCCC(O)c1cc(C)c(-c2cc3cnc(NC(=O)[C@H]4C[C@H]4F)cc3n(C)c2=O)cn1 (single isomer, unassigned) [Example S43, Isomer A] | 8.01 nM | 399 nM | 82.1 nM | 457 nM | 152 nM | 52.1 nM | 1690 nM | – | – | – | – | – | – | –
CCCC(O)c1cc(C)c(-c2cc3cnc(NC(=O)[C@H]4C[C@H]4F)cc3n(C)c2=O)cn1 (single isomer, unassigned) [Example S43, Isomer B] | – | > 6150 nM | 843 nM | 2710 nM | 335 nM | 189 nM | – | 14.7 nM | – | – | – | – | – | –
CCC(O)c1cc(C)c(-c2cc3cnc(NC(=O)[C@H]4CC4(F)F)cc3n(C)c2=O)cn1 (single isomer, unassigned) [Example S49, Isomer B] | – | 103 nM | 12.6 nM | 153 nM | – | – | 733 nM | 8.64 nM | 74.9 nM | – | – | – | – | –
CCC(O)c1cc(C)c(-c2cc3cnc(NC(C)=O)cc3n(C)c2=O)cn1 (single isomer, unassigned) [Example S59, Enantiomer A, N-(3-(6-(1-hydroxypropyl)-4-methylpyridin-3-yl)-1-methyl-2-oxo-1,2-dihydro-1,6-naphthyridin-7-yl)acetamide] | – | – | – | – | – | – | > 10000 nM | 78.5 nM | – | – | – | – | – | –
CCCC(O)c1cc(C)c(-c2cc3cnc(NC(C)=O)cc3n(C)c2=O)cn1 (single isomer, unassigned) [Example S67, Enantiomer A, N-(3-{6-[1-hydroxybutyl]-4-methylpyridin-3-yl}-1-methyl-2-oxo-1,6-naphthyridin-7-yl)acetamide] | – | – | – | – | – | – | 9480 nM | 7.23 nM | 215 nM | 974 nM | 252 nM | 1390 nM | – | –
CCC(O)c1cc(C)c(-c2cc3cnc(NC(=O)[C@@H]4C[C@@H]4F)cc3n(C)c2=O)cn1 (single isomer, unassigned; isomer a) [Example S40, Isomer A] | – | 446 nM | 211 nM | 496 nM | – | 492 nM | – | 47.4 nM | – | – | – | – | 1230 nM | –
CC[C@H](O)c1cc(C)c(-c2cc3cnc(NC(=O)C4CC4)cc3n(C)c2=O)cn1 [Compound 69, N-(3-[6-[(1S)-1-hydroxypropyl]-4-methylpyridin-3-yl]-1-methyl-2-oxo-1,6-naphthyridin-7-yl)cyclopropanecarboxamide] | 43.1 nM | – | – | – | – | – | 496 nM | – | 372 nM | 517 nM | 107 nM | 485 nM | – | 354 nM
CC[C@H](O)c1cc(C)c(-c2cc3cnc(NC(=O)[C@H]4C[C@H]4F)cc3n(C)c2=O)cn1 [Compound 108, (1R,2R)-2-fluoro-N-(3-(6-((S)-1-hydroxypropyl)-4-methylpyridin-3-yl)-1-methyl-2-oxo-1,2-dihydro-1,6-naphthyridin-7-yl)cyclopropane-1-carboxamide] | 17.4 nM | – | – | – | – | – | 1980 nM | – | 422 nM | 311 nM | 88.7 nM | 309 nM | – | 308 nM
CCC(=O)c1cc(C)c(-c2cc3cnc(NC(=O)[C@H]4C[C@H]4F)cc3n(C)c2=O)cn1 [Compound 148, (1R,2R)-2-fluoro-N-(1-methyl-3-(4-methyl-6-propionylpyridin-3-yl)-2-oxo-1,2-dihydro-1,6-naphthyridin-7-yl)cyclopropane-1-carboxamide] | 19.3 nM | – | – | – | – | – | 2640 nM | – | – | – | – | – | – | –
CCCC(=O)c1cc(C)c(-c2cc3cnc(NC(=O)[C@@H]4C[C@@H]4F)cc3n(C)c2=O)cn1 [Compound 152, (1S,2S)—N-(3-(6-butyryl-4-methylpyridin-3-yl)-1-methyl-2-oxo-1,2-dihydro-1,6-naphthyridin-7-yl)-2-fluorocyclopropane-1-carboxamide] | 8.99 nM | – | – | – | – | – | 534 nM | – | 116 nM | 585 nM | 257 nM | 412 nM | – | –

Reference: patent US20240287062A1, “NAPHTHYRIDONE COMPOUNDS FOR INHIBITION OF RAF KINASES AND/OR BCR-ABL TYROSINE KINASES” (Enliven Inc., priority 2021, published 2024)
